Laboratory results taken from ChEMBL document CHEMBL1140902 (J Med Chem, 2009).

Assays:
Progesterone receptor [1] = target: T1, Progesterone receptor (Homo sapiens, UniProt P06401); assay: Antagonist activity at progesterone receptor in human T47D cells assessed as inhibition of progesterone-induced alkaline phosphatase activity after 48 hrs; format: functional, cell-based
T1 sequence (P06401 whole entry): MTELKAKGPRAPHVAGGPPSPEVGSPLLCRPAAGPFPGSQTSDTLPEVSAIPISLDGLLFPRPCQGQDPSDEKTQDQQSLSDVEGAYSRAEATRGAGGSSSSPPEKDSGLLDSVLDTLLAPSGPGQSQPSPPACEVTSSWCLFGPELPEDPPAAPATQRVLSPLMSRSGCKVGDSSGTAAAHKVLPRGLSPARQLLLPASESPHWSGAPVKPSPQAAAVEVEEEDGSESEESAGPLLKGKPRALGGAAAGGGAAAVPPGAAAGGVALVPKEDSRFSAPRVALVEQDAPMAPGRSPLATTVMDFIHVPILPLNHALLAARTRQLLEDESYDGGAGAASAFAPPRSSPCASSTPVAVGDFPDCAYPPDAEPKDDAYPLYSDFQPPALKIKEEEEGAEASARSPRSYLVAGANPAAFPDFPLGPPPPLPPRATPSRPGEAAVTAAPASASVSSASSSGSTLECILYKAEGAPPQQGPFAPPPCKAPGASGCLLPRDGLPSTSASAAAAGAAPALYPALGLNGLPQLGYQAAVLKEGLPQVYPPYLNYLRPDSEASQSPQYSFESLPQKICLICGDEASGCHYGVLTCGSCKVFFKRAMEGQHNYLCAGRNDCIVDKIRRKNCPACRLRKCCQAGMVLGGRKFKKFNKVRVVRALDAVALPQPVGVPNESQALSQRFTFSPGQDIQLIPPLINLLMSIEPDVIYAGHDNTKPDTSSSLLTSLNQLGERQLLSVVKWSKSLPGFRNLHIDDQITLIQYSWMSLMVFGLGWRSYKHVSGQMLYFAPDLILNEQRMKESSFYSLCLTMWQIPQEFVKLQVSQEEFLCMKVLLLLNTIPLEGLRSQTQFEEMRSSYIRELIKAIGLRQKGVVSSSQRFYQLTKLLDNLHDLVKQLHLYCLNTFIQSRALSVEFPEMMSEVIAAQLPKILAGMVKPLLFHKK

Progesterone receptor [2] = target: T1, Progesterone receptor; assay: Antagonist activity at progesterone receptor in human T47D-C124 cells transfected with luciferase gene linked to MMTV promoter assessed as inhibition of progesterone-induced luciferase transactivation activity after 24 hrs; format: functional, cell-based

Structure (SMILES)	IC50 (Progesterone receptor [1]) [pM]	IC50 (Progesterone receptor [2]) [pM]
CC#C[C@]1(O)CC[C@H]2[C@@H]3CCC4=CC(=O)CCC4=C3[C@@H](c3ccc(N(C)CCCCCCCC(=O)OC)cc3)C[C@@]21C	470	–
CC#C[C@]1(O)CC[C@H]2[C@@H]3CCC4=CC(=O)CCC4=C3[C@@H](c3ccc(N(C)CCCCCCOC(=O)CCC(=O)OC)cc3)C[C@@]21C	170	–
CC#C[C@]1(O)CC[C@H]2[C@@H]3CCC4=CC(=O)CCC4=C3[C@@H](c3ccc(N(C)CCC(=O)Nc4ccc(C(N)=O)c(O)c4)cc3)C[C@@]21C	440	–
CC#C[C@]1(O)CC[C@H]2[C@@H]3CCC4=CC(=O)CCC4=C3[C@@H](c3ccc(N(C)C(=O)CCCC(=O)OC)cc3)C[C@@]21C	1550	–
CC#C[C@]1(O)CC[C@H]2[C@@H]3CCC4=CC(=O)CCC4=C3[C@@H](c3ccc(N(C)C(=O)CCCCC)cc3)C[C@@]21C	690	–
CC#C[C@]1(O)CC[C@H]2[C@@H]3CCC4=CC(=O)CCC4=C3[C@@H](c3ccc(N(C)CCCCCC4OCCO4)cc3)C[C@@]21C	170	73
CC#C[C@]1(O)CC[C@H]2[C@@H]3CCC4=CC(=O)CCC4=C3[C@@H](c3ccc(OC)cc3)C[C@@]21C	95	–
CC#C[C@]1(O)CC[C@H]2[C@@H]3CCC4=CC(=O)CCC4=C3[C@@H](c3ccc(N(C)CCC(=O)OC)cc3)C[C@@]21C	160	–
CC#C[C@]1(O)CC[C@H]2[C@@H]3CCC4=CC(=O)CCC4=C3[C@@H](c3ccc(N(C)C(=O)Nc4ccc(Cl)cc4)cc3)C[C@@]21C	270	–
CC#C[C@]1(O)CC[C@H]2[C@@H]3CCC4=CC(=O)CCC4=C3[C@@H](c3ccc(N(C)C(=S)NCCCC)cc3)C[C@@]21C	730	–
CC#C[C@]1(O)CC[C@H]2[C@@H]3CCC4=CC(=O)CCC4=C3[C@@H](c3ccc(N(C)CCC(=O)O)cc3)C[C@@]21C	34000	–
CC#C[C@]1(O)CC[C@H]2[C@@H]3CCC4=CC(=O)CCC4=C3[C@@H](c3ccc(N(C)C(=O)NCCCCCC(=O)N[C@@H](CC(C)C)C(=O)OC(C)(C)C)cc3)C[C@@]21C	1700	–
CC#C[C@]1(O)CC[C@H]2[C@@H]3CCC4=CC(=O)CCC4=C3[C@@H](c3ccc(N(C)CCCCCCCCC)cc3)C[C@@]21C	1400	380
CC#C[C@]1(O)CC[C@H]2[C@@H]3CCC4=CC(=O)CCC4=C3[C@@H](c3ccc(O)cc3)C[C@@]21C	1300	–
CC#C[C@]1(O)CC[C@H]2[C@@H]3CCC4=CC(=O)CCC4=C3[C@@H](c3ccc(N(C)C(=O)NCCCCCC(=O)OC)cc3)C[C@@]21C	2200	–
CC#C[C@]1(O)CC[C@H]2[C@@H]3CCC4=CC(=O)CCC4=C3[C@@H](c3ccc(N(C)CCCCCCO)cc3)C[C@@]21C	60	71
CC#C[C@]1(O)CC[C@H]2[C@@H]3CCC4=CC(=O)CCC4=C3[C@@H](c3ccc(N(C)C(=O)NCCCCCC(=O)N[C@@H](CC(C)C)C(=O)O)cc3)C[C@@]21C	72000	–
CC#C[C@]1(O)CC[C@H]2[C@@H]3CCC4=CC(=O)CCC4=C3[C@@H](c3ccc(N(C)CCCOC(=O)CCC(=O)OC)cc3)C[C@@]21C	1200	–
CC#C[C@]1(O)CC[C@H]2[C@@H]3CCC4=CC(=O)CCC4=C3[C@@H](c3ccc(N(C)CCCCCC=O)cc3)C[C@@]21C	150	–
CC#C[C@]1(O)CC[C@H]2[C@@H]3CCC4=CC(=O)CCC4=C3[C@@H](c3ccc(N(C)CCCCCC(=O)NCCCC)cc3)C[C@@]21C	900	–
CC#C[C@]1(O)CC[C@H]2[C@@H]3CCC4=CC(=O)CCC4=C3[C@@H](c3ccc(N(C)C(=O)CCCCC(=O)OC)cc3)C[C@@]21C	1800	–
CC#C[C@]1(O)CC[C@H]2[C@@H]3CCC4=CC(=O)CCC4=C3[C@@H](c3ccc(N(C)C(=O)CCCCC(=O)O)cc3)C[C@@]21C	78000	–
CC#C[C@]1(O)CC[C@H]2[C@@H]3CCC4=CC(=O)CCC4=C3[C@@H](c3ccc(N(C)C(=O)CCCC(=O)O)cc3)C[C@@]21C	100000	–
CC#C[C@]1(O)CC[C@H]2[C@@H]3CCC4=CC(=O)CCC4=C3[C@@H](c3ccc(N(C)CCCCCCCC(=O)O)cc3)C[C@@]21C	270	–

The remaining compounds from weak to strong by IC50 (Progesterone receptor [1]), led by results:

IC50 (Progesterone receptor [1]) [pM]	IC50 (Progesterone receptor [2]) [pM]	Structure (SMILES)
72000	–	CC#C[C@]1(O)CC[C@H]2[C@@H]3CCC4=CC(=O)CCC4=C3[C@@H](c3ccc(N(C)C(=O)NCCCCCC(=O)O)cc3)C[C@@]21C
2100	–	CC#C[C@]1(O)CC[C@H]2[C@@H]3CCC4=CC(=O)CCC4=C3[C@@H](c3ccc(N(C)CCCOC(=O)CCC(=O)O)cc3)C[C@@]21C
1000	–	CC#C[C@]1(O)CC[C@H]2[C@@H]3CCC4=CC(=O)CCC4=C3[C@@H](c3ccc(OCCCCCCCCCBr)cc3)C[C@@]21C
790	–	CC#C[C@]1(O)CC[C@H]2[C@@H]3CCC4=CC(=O)CCC4=C3[C@@H](c3ccc(N(C)C(=O)NCCCC)cc3)C[C@@]21C
660	180	CC#C[C@]1(O)CC[C@H]2[C@@H]3CCC4=CC(=O)CCC4=C3[C@@H](c3ccc(N(C)CCCCCC)cc3)C[C@@]21C
630	–	CC#C[C@]1(O)CC[C@H]2[C@@H]3CCC4=CC(=O)CCC4=C3[C@@H](c3ccc(N(C)CCCCCCCCCCC(=O)OC)cc3)C[C@@]21C
550	–	CC#C[C@]1(O)CC[C@H]2[C@@H]3CCC4=CC(=O)CCC4=C3[C@@H](c3ccc(N(C)CCCCCC(N)=O)cc3)C[C@@]21C
460	–	CC#C[C@]1(O)CC[C@H]2[C@@H]3CCC4=CC(=O)CCC4=C3[C@@H](c3ccc(N(C)CCCOCc4ccc(C(N)=O)c(O)c4)cc3)C[C@@]21C
460	–	CC#C[C@]1(O)CC[C@H]2[C@@H]3CCC4=CC(=O)CCC4=C3[C@@H](c3ccc(N(C)CCCCCCCCCCC(=O)O)cc3)C[C@@]21C
440	–	CC#C[C@]1(O)CC[C@H]2[C@@H]3CCC4=CC(=O)CCC4=C3[C@@H](c3ccc(N(C)CCCCCC(=O)O)cc3)C[C@@]21C
400	–	CC#C[C@]1(O)CC[C@H]2[C@@H]3CCC4=CC(=O)CCC4=C3[C@@H](c3ccc(N(C)CCCCCC(=O)OC)cc3)C[C@@]21C
270	25	CC#C[C@]1(O)CC[C@H]2[C@@H]3CCC4=CC(=O)CCC4=C3[C@@H](c3ccc(N(C)CCC)cc3)C[C@@]21C
250	–	CC#C[C@]1(O)CC[C@H]2[C@@H]3CCC4=CC(=O)CCC4=C3[C@@H](c3ccc(N(C)CCCCCCOC(=O)CCC(=O)O)cc3)C[C@@]21C
170	73	CC#C[C@]1(O)CC[C@H]2[C@@H]3CCC4=CC(=O)CCC4=C3[C@@H](c3ccc(NC)cc3)C[C@@]21C [DESMETHYLMIFEPRISTONE]
160	–	CC#C[C@]1(O)CC[C@H]2[C@@H]3CCC4=CC(=O)CCC4=C3[C@@H](c3ccc(N(C)C(=S)Nc4ccc(Cl)cc4)cc3)C[C@@]21C
120	105	CC#C[C@]1(O)CC[C@H]2[C@@H]3CCC4=CC(=O)CCC4=C3[C@@H](c3ccc(N(C)CCCO)cc3)C[C@@]21C
